Source: patent publication US6872805B2 (Bristol-Myers Squibb Company, priority 2000, dated 2005)
Read-outs that look alike come from different tables or passages of the source.

Test system: HCV replicon in Huh7 cells
Assay: HCV replicon cell-based assay
Design: species or system HCV strain 1B
Conditions: Hepatitis C virus, HCV replicon, Huh7 cells
Outline: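 Genotype 1b subgenomic replicon Huh7 cells exposed to compound 4 days at 37° C in 4% FCS, 0.5% DMSO medium. EC50 from TaqMan RT-PCR of HCV RNA, normalized to total RNA by RiboGreen; CC50 from alamar Blue fluorescence after 4 h.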

What does the source list for `C=CC1C[C@]1(NC(=O)[C@@H]1C[C@@H](Oc2cc(-c3ccccc3)nc3cc(OC)ccc23)CN1C(=O)C(NC(=O)OC(C)(C)C)C(C)(C)C)C(=O)NS(=O)(=O)c1ccc(NC(C)=O)cc1` (some centres unmarked) [Compound 58]?
EC50 (Huh-7, 96 h, 4 days, activity ranges, read-out: EC50): < 500 nM; EC50 (Huh-7, read-out: EC50 value in the replicon assay): 250 nM
